“Also recorded” adds a separate entry of the source.
What was measured:
[1] = tested on: retinal ganglion cells (RGCs); experiment: Glutamate toxicity: RGC loss after intravitreal L-glutamate injection and immunization; assay type: in vivo; conditions: Lewis rats
[2] = tested on: retinal ganglion cells (RGCs); experiment: Partial optic nerve crush injury: RGC survival after active immunization; assay type: in vivo, rats (SPD, Fisher, Lewis)
[3] = tested on: retinal ganglion cells (RGCs); experiment: RGC survival after immunization in the absence of insult; conditions: for percentage of RGC survival (mean ± SEM) vs PBS-injected controls: immunization without insult
[4] = tested on: experimental autoimmune uveoretinitis (EAU); conditions: cited from earlier work; for uveitogenicity / immunopathogenicity: rat, in vivo
spinal cord = experiment: Recovery from spinal cord contusion (open-field locomotor score); assay type: in vivo; conditions: female Lewis rats; contusion at T8; 100 μg in CFA (0.5 mg/ml) within 1 h after contusion
[5] = tested on: experimental autoimmune uveoretinitis (EAU); experiment: Induction of uveitis / EAU by the peptide; assay type: in vivo; conditions: Lewis rats
[6] = tested on: retinal ganglion cells (RGCs); conditions: glutamate insult or consequences of axonal injury; conditions where R16 protects; cited from earlier work
[7] = Fisher rats, 200 μg peptide in CFA immediately after optic nerve crush
[8] = Fisher rats, 200 μg peptide in CFA immediately after optic nerve crush, PBS control 109±12

With “ADGSSWEGVGVVPVD (ADGSSWEGVGVVPDV) [Peptide R16, immunodominant uveitogenic peptide, amino acids 1177-1191 of bovine IRBP]” the “percentage of RGC loss (mean ± SEM) relative to normal retinas” value ([1]; 400 nmol L-glutamate intravitreal, 30 μg peptide in CFA (0.5 mg/ml) immediately after, PBS in CFA control 28±4%) was 14±2%, the “protection of RGCs from glutamate toxicity” value ([1]; peptide emulsified in CFA at 2.5 mg/ml, compared with PBS in CFA, data not shown) was “not protective and even caused additional neuronal loss” and the “surviving RGCs per square millimeter (mean ± SEM)” value ([2]; Fisher rats, 30 μg in CFA (2.5 mg/ml) immediately after optic nerve crush, PBS control 114±9) was 183±16 per square millimeter. The “surviving RGCs per square millimeter (mean ± SEM)” value ([2]; Fisher rats, 30 μg in CFA one week before crush, booster 30 μg in IFA after injury, PBS control 89±10) was 165±22 per square millimeter, the “surviving RGCs per square millimeter (mean ± SEM)” value ([2]; Lewis rats, 30 μg in CFA (2.5 mg/ml) immediately after optic nerve crush, PBS control 73±10) was 192±8 per square millimeter and the “surviving RGCs per square millimeter (mean ± SEM)” value ([2]; Lewis rats, 30 μg in CFA one week before crush, booster 30 μg in IFA after injury, PBS control 95±22, not statistically significant) was 117±21 per square millimeter. For the same molecule, the “maximal benefit after a neuronal insult (surviving RGCs vs PBS)” value ([2]; Lewis rats, 192±8 vs 73±10 surviving RGCs/mm^2) was 263%, the “surviving RGCs per square millimeter (mean ± SEM)” value ([2]; SPD rats, 30 μg in CFA (2.5 mg/ml) immediately after optic nerve crush, PBS control 60±14) was 150±13 per square millimeter and the “percentage of RGC survival (mean ± SEM) vs PBS-injected controls” value ([3]; Fisher rats) was 97±8%. The “percentage of RGC survival (mean ± SEM) vs PBS-injected controls” value ([3]; Lewis rats, 2 weeks after vaccination) was 83±5%, the “maximal loss of RGCs” value ([3]; non-injured Lewis rats, 2 weeks after vaccination) was roughly 17% and the “induction of uveitis” value ([4]; Lewis rats, but not SPD or Fisher rats) was “known to cause uveitis in Lewis rats”. The “recovery of motor activity (open-field motor score) vs PBS in CFA” value (spinal cord) was “did not affect spinal cord recovery; also recorded: At no time were any differences observed”, the “clinical onset of EAU, day after immunization” value [5] was 10 days and the “peak of inflammation (EAU), day after immunization” value [5] was 14 days.

In the case of DTNLASST [Peptide M-8], the “RGC survival compared with PBS-injected controls” value [2, 7] is listed as “Significantly more RGCs”, the “surviving RGCs per square millimeter (mean ± SEM)” value [2, 8] is listed as 153±10 per square millimeter and the “uveitogenicity / immunopathogenicity” value [4] is listed as “uveitogenic”.

In the case of TSSEAATE [G-8 analog], the “RGC survival compared with PBS-injected controls” value ([2]; Fisher rats, 500 μg peptide in CFA immediately after optic nerve crush) is given as “Significantly more RGCs survived”, the “surviving RGCs per square millimeter (mean ± SEM)” value ([2]; Fisher rats, 500 μg peptide in CFA immediately after optic nerve crush, PBS control 90±11) is given as 175±15 per square millimeter and the “uveitogenicity / immunopathogenicity” value [4] is given as “immunogenic, but not immunopathogenic”.

For DTALASST [M-8 analog], the “RGC survival compared with PBS-injected controls” value [2, 7] is given as “Significantly more RGCs”, the “surviving RGCs per square millimeter (mean ± SEM)” value [2, 8] is given as 159±19 per square millimeter and the “uveitogenicity / immunopathogenicity” value [4] is given as “immunogenic, but not immunopathogenic”.

In the case of TSSEVATE [Peptide G-8], the “RGC survival compared with PBS-injected controls” value [2, 7] is listed as “Significantly more RGCs”, the “surviving RGCs per square millimeter (mean ± SEM)” value [2, 8] is listed as 159±5 per square millimeter and the “uveitogenicity / immunopathogenicity” value [4] is listed as “uveitogenic”.

B1: MBP: myelin basic protein, a myelin antigen (protein, UniProt P02688 2-195, looked up)
Myelin basic protein: ASQKRPSQRHGSKYLATASTMDHARHGFLPRHRDTGILDSIGRFFSGDRGAPKRGSGKVPWLKQSRSPLPSHARSRPGLCHMYKDSHTRTTHYGSLPQKSQRTQDENPVVHFFKNIVTPRTPPPSQGKGRGLSLSRFSWGAEGQKPGFGYGGRASDYKSAHKGFKGAYDAQGTLSKIFKLGGRDSRSGSPMARR
In the case of B1, the “protective effect on RGCs by vaccination” value [6] is given as “no such protective effect”.

From patent US20050220803A1, “Use of an organ-specific self-pathogen for treatment of a non-autoimmune disease of said organ” (Yeda Research and Development Co. Ltd., priority 2002, published 2005)
